The test system of experiment [1] is carageenan-induced edema. Briefly: Carrageenan-induced rat paw edema test (anti-inflammatory activity). The following applies: carrageenan-induced rat paw edema, defined in Example 397; for inhibition in vivo at 50 mg/kg: Rattus norvegicus, po, 3 h, read-out: % Protection. The arrangement: % Protection: concentration or dose not given beside the values. The format is in vivo, Sprague-Dawley rats. A digest of the protocol: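 Edema was raised by sub-plantar injection of 1% carrageenan into the right hind paw, 1 h after dosing 18 h-fasted male/female Sprague-Dawley rats (150-250 g) with 50 mg/kg p.o. in 0.1% CMC. Swelling was measured by displacement 3 h later and expressed as % protection against saline control.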
Background: The carrageenan paw model is a standard test of acute inflammation.

For experiment [2], the system named is NF-κB. Description: NF-κB inhibitor screen: basal NF-κB-dependent luciferase expression in HEK/NF-κB cell line. The following applies: 1 uM, determined as described in Example 398; for inhibition at 1 µM: read-out: NFkB inhibition @ 1 uM. The class given is cell-based. The source says: Development of NF-κB and AP-1 Screens: Two HEK293 cell lines were purchased from Panomics. One cell line was stably transfected with a plasmid in which luciferase expression is regulated by six copies of the NF-κB transcriptional element (5′-[…]-3′); and the other cell line was stably transfected with a plasmid in which luciferase expression is regulated by three copies of the AP-1 transcriptional element (TGACTAA). To test the biological activity of the promoters, the HEK/NF-κB cell line was stimulated with TNF-α (20 ng/ml) for 24 hours, and the HEK/AP-1 cell line was stimulated with PMA (10 ng/ml) for 24 hours. […] In addition, a pyrimidine carboxyimide that had previously been shown (ref. 58) to be an inhibitor of transcription mediated by NF-κB and AP-1 reduced luciferase activity by approximately 40% in each of the NF-κB and AP-1 cell lines.
The above two assays analyzed the effects of the compounds on post-transcriptional gene regulation, which is known to play a key role in cancer and inflammation. By contrast, the NF-κB assay and the following assay (AP-1) test whether the compounds act at the transcriptional level. Thirty-nine representative compounds were screened in an HEK/NF-κB cell line. HEK cells were stably transfected with a plasmid expressing luciferase under the control of the NF-κB promoter. These transfected cells were plated on a 96-well plate. As above, initial screening was carried out at 1.0 μM by adding compound in DMSO (0.3%) twenty-four hours after plating. Each compound was added to each of triplicate wells. DMSO (0.3%) was added to one set of wells as a control. Luciferase activity was determined using Promega's Brite-Glo kit, and the mean for each sample was normalized to that for DMSO.
The fourteen representative compounds identified in the eIF4E screen as interesting (Numbered 2, 3, 4, 6, 8, 11, 15, 20, 21, 24, 25, 32, 33, and 35) were then tested for luciferase activity in a six-point dose response (10 nM, 33 nM, 100 nM, 330 nM, 1000 nM, and 3300 nM). Screening was carried out as described above by monitoring the effects of the compounds on basal NF-κB-dependent luciferase expression. Each dose was used out in triplicate, and repeated between two and four times. Results were normalized by the average expression level at the lowest concentration level, as described above.

The test system of experiment [3] is AP-1. Description: AP-1 inhibitor screen: basal AP-1-dependent luciferase expression in HEK/AP-1 cell line. The class given is cell-based. The following applies: for inhibition at 1 µM: AP1; for inhibition at 1 µM / AP-1 inhibition @ 1 uM: determined as described in Example 398. The source says:
Development of NF-κB and AP-1 Screens: Two HEK293 cell lines were purchased from Panomics. One cell line was stably transfected with a plasmid in which luciferase expression is regulated by six copies of the NF-κB transcriptional element (5′-[…]-3′); and the other cell line was stably transfected with a plasmid in which luciferase expression is regulated by three copies of the AP-1 transcriptional element (TGACTAA). To test the biological activity of the promoters, the HEK/NF-κB cell line was stimulated with TNF-α (20 ng/ml) for 24 hours, and the HEK/AP-1 cell line was stimulated with PMA (10 ng/ml) for 24 hours.
HEK cells were stably transfected with a plasmid expressing luciferase under the control of the AP-1 promoter. The transfected cells were plated on a 96-well plate for 24 hr. Then 1.0 μM of each compound in DMSO (0.3%) was added to triplicate wells and incubated for 48 hr. DMSO (0.3%) was added to one set of triplicate wells as a control. Luciferase activity was determined using Promega's Brite-Glo kit, and the mean for each sample was normalized to that for DMSO.
Screening was carried out as described above, monitoring the compounds' effects on basal AP-1-dependent luciferase expression. Each dose-response experiment was carried out in triplicate and repeated between two and four times.

Molecules are shown by their SMILES.

As for `Cc1nc(Nc2ccc(Cl)cc2)sc1-c1nc2ccccc2c(=O)n1-c1ccccc1` [Example 158, 2-[2-(4-Chlorophenylamino)-4-methyl-thiazol-5-yl]-3-phenyl-3H-quinazolin-4-one], in experiment [1], the inhibition in vivo at 50 mg/kg was determined as 4%. Moreover, the inhibition (commonly the drop in the measured response relative to a control, in per cent) at 1 µM was -9% in experiment [2] and -20% in experiment [3].

On to `O=c1c2ccccc2nc(-c2sc(Nc3ccccc3)nc2-c2ccccc2)n1-c1ccccc1` [Example 161, 3-Phenyl-2-(4-phenyl-2-phenylamino-thiazol-5-yl)-3H-quinazolin-4-one], for which the inhibition in vivo at 50 mg/kg in experiment [1] was 60%. For the same compound, the inhibition at 1 µM in experiment [2] stood at 80%; in experiment [3], 7%.

Regarding `O=C(Nc1nc(-c2ccccc2)c(-c2nc3ccccc3c(=O)n2-c2ccccc2)s1)c1ccccc1` [Example 162], the “% Protection” value in experiment [1] is 87%. In experiment [2], the “NFkB inhibition @ 1 uM” value came to 58. For the same compound, the “AP-1 inhibition @ 1 uM” value in experiment [3] came out at 17.

Consider `Cc1ccc(C(=O)Nc2nc(-c3ccccc3)c(-c3nc4ccccc4c(=O)n3-c3ccccc3)s2)cc1` [Example 163, 4-Methyl-N-[5-(4-oxo-3-phenyl-3,4-dihydroquinazolin-2-yl)-4-phenyl-thiazol-2-yl]-benzamide], for which, in experiment [1], the inhibition in vivo at 50 mg/kg worked out at 77%. Also, the inhibition at 1 µM amounted to 88% in experiment [2] and 68% in experiment [3].

With `O=c1c2ccccc2nc(-c2sc(Nc3ccc(Cl)cc3)nc2-c2ccccc2)n1-c1ccccc1` [Example 165, 2-[2-(4-Chloro-phenylamino)-4-phenyl-thiazol-5-yl]-3-phenyl-3H-quinazolin-4-one], in experiment [1], the inhibition in vivo at 50 mg/kg stood at 87%. The inhibition at 1 µM in experiment [2] was -47%; in experiment [3], 27%. Further, the “basal AP-1-dependent luciferase, six-point dose response” value in experiment [3] (10 nM-3300 nM (FIG. 14)) was “substantial activity at submicromolar concentrations”.

As for `CNc1nc(C)c(-c2nc3ccccc3c(=O)n2-c2ccccc2C)s1` [Example 168], the “% Protection” value in experiment [1] is given as 35%. The “NFkB inhibition @ 1 uM” value in experiment [2] was found to be 16. Moreover, the “AP-1 inhibition @ 1 uM” value in experiment [3] came out at 67.

As to `Cc1ccccc1-n1c(-c2sc(Nc3ccccc3)nc2C)nc2ccccc2c1=O` [Example 169, 2-(4-Methyl-2-phenylamino-thiazol-5-yl)-3-o-tolyl-3H-quinazolin-4-one], the inhibition in vivo at 50 mg/kg in experiment [1] was 42%. Besides, the inhibition at 1 µM in experiment [2] worked out at 21%; in experiment [3] it was 60%.

Turning to `CCOC(=O)Nc1nc(-c2ccccc2)c(-c2nc3ccccc3c(=O)n2-c2ccccc2C)s1` [Example 171, [5-(4-Oxo-3-o-tolyl-3,4-dihydro-quinazolin-2-yl)-4-phenyl-thiazol-2-yl]-carbamic acid ethyl ester], the inhibition in vivo at 50 mg/kg in experiment [1] is 52%. The results for the inhibition at 1 µM in experiment [2] and in experiment [3] were 23% and 52%, respectively.

Turning to `Cc1cccc(-n2c(-c3sc(Nc4ccc(Cl)cc4)nc3-c3ccccc3)nc3ccccc3c2=O)c1` [Example 189, 2-[2-(4-Chloro-phenylamino)-4-phenyl-thiazol-5-yl]-3-m-tolyl-3H-quinazolin-4-one], in experiment [1], the inhibition in vivo at 50 mg/kg was determined as 38%. For the same compound, the results for the inhibition at 1 µM in experiment [2] and in experiment [3] were -4% and 83%, respectively.

Turning to `Cc1ccc(-n2c(-c3sc(Nc4ccc(Cl)cc4)nc3C)nc3ccccc3c2=O)cc1` [Example 192, 2-[2-(4-Chlorophenylamino)-4-methyl-thiazol-5-yl]-3-p-tolyl-3H-quinazolin-4-one], the inhibition in vivo at 50 mg/kg in experiment [1] was 37%. Also, the figures for the inhibition at 1 µM in experiment [2] and in experiment [3] were 12% and 2%, respectively.

`CCOC(=O)Nc1nc(-c2ccccc2)c(-c2nc3ccccc3c(=O)n2-c2ccc(C)cc2)s1` [Example 193, [5-(4-Oxo-3-p-tolyl-3,4-dihydro-quinazolin-2-yl)-4-phenyl-thiazol-2-yl]-carbamic acid ethyl ester]: in experiment [1], the inhibition in vivo at 50 mg/kg was determined as 31%. The values for the inhibition at 1 µM in experiment [2] and in experiment [3] were 2% and 11%, respectively.

With `Cc1ccc(-n2c(-c3sc(Nc4ccc(Cl)cc4)nc3-c3ccccc3)nc3ccccc3c2=O)cc1` [Example 200, 2-[2-(4-Chloro-phenylamino)-4-phenyl-thiazol-5-yl]-3-p-tolyl-3H-quinazolin-4-one], the inhibition in vivo at 50 mg/kg in experiment [1] came out at 56%. The inhibition at 1 µM in experiment [2] was -16%; in experiment [3] it was 2%.

As to `CNc1nc(-c2ccccc2)c(-c2nc3ccccc3c(=O)n2-c2ccccc2OC)s1` [Example 205, 2-(2-Methylamino-4-phenyl-thiazol-5-yl)-3-(2-methoxyphenyl)-3H-quinazolin-4-one], the inhibition in vivo at 50 mg/kg in experiment [1] was 56%. Besides, the figures for the inhibition at 1 µM in experiment [2] and in experiment [3] were 61% and 90%, respectively.

Turning to `COc1cccc(-n2c(-c3sc(Nc4ccccc4)nc3-c3ccccc3)nc3ccccc3c2=O)c1` [Example 213, 3-(3-methoxyphenyl)-2-(4-phenyl-2-phenylamino-thiazol-5-yl)-3H-quinazolin-4-one], the inhibition in vivo at 50 mg/kg in experiment [1] came out at 38%. The results for the inhibition at 1 µM in experiment [2] and in experiment [3] were 35% and 33%, respectively.

As for `COc1ccc(-n2c(-c3sc(Nc4ccc(Cl)cc4)nc3C)nc3ccccc3c2=O)cc1` [Example 217, 2-[2-(4-Chlorophenylamino)-4-methyl-thiazol-5-yl]-3-(4-methoxyphenyl)-3H-quinazolin-4-one], the inhibition in vivo at 50 mg/kg in experiment [1] is 50%. The inhibition at 1 µM in experiment [2] is -38%; in experiment [3], -43%.

Consider `CCOC(=O)Nc1nc(-c2ccccc2)c(-c2nc3ccccc3c(=O)n2-c2ccc(OC)cc2)s1` [Example 218, [5-(4-Oxo-3-(4-methoxyphenyl)-3,4-dihydro-quinazolin-2-yl)-4-phenyl-thiazol-2-yl]-carbamic acid ethyl ester], for which, in experiment [1], the inhibition in vivo at 50 mg/kg was 20%. Further, the results for the inhibition at 1 µM in experiment [2] and in experiment [3] were 22% and 24%, respectively.

For the compound `COc1ccc(-n2c(-c3sc(Nc4ccccc4)nc3-c3ccccc3)nc3ccccc3c2=O)cc1` [Example 221, 3-(4-Methoxyphenyl)-2-(4-phenyl-2-phenylamino-thiazol-5-yl)-3H-quinazolin-4-one], the inhibition in vivo at 50 mg/kg in experiment [1] amounted to 85%. Moreover, the inhibition at 1 µM in experiment [2] came to 79%; in experiment [3], 18%.

With `COc1ccc(-n2c(-c3sc(NC(=O)c4ccccc4)nc3-c3ccccc3)nc3ccccc3c2=O)cc1` [Example 222, N-[5-(4-Oxo-3-(4-methoxyphenyl)-3,4-dihydro-quinazolin-2-yl)-4-phenyl-thiazole-2-yl]benzamide], in experiment [1], the inhibition in vivo at 50 mg/kg was determined as 24%. In addition, the inhibition at 1 µM came out at 15% in experiment [2] and 0% in experiment [3].

With `Cc1nc(Nc2ccc(Cl)cc2)sc1-c1nc2ccccc2c(=O)n1-c1ccccc1Cl` [Example 230, 2-[2-(4-Chlorophenylamino)-4-methyl-thiazol-5-yl]-3-(2-chloro-phenyl)-3H-quinazolin-4-one], in experiment [1], the inhibition in vivo at 50 mg/kg was 58%. In addition, the results for the inhibition at 1 µM in experiment [2] and in experiment [3] were 60% and 21%, respectively.

For the origin of these results see patent US8829014B2, “Thiazole and thiophene analogues, and their use in treating autoimmune diseases and cancers” (Board of Supervisors of Louisiana State University and …, priority 2006, dated 2014).
